Where two headings read alike, the source gives them in different places.
Target: T1, human recombinant COX2 (hCOX2) (UniProt P35354)
T1 sequence (P35354 1-604): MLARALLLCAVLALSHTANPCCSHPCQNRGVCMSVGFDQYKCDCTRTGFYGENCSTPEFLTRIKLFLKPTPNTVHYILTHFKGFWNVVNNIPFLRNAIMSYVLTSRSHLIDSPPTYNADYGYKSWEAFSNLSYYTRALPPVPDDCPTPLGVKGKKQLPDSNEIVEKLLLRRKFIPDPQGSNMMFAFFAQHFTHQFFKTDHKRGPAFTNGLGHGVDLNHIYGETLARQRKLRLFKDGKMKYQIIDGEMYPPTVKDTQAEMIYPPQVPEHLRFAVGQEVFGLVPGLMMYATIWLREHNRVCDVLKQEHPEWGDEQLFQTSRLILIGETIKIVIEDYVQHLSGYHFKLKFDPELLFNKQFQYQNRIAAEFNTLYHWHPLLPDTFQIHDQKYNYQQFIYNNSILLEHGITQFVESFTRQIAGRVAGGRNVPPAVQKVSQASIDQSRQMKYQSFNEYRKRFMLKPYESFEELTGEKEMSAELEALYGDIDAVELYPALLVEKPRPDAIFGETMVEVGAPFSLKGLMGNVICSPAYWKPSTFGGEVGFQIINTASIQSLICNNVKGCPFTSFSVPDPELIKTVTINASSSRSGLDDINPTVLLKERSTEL
Assay: LCMS-based COX2 enzymatic inhibition assay (PGE2 quantification)
Type: biochemical
Parameters: COX2 2 minutes pge2/pge2d4 area ratio Avg; other: 2 minutes; readout pge2/pge2d4 area ratio; average; COX2 2 minutes pge2/pge2d4 area ratio Avg; LLE; average LLE; COX2 2 minutes pge2 area (counts) Avg; readout pge2 area (counts); other: 2 min; "ovine COX2 (oCOX2), human recombinant COX2 (hCOX2)"
Settings: for IC50: average
Procedure, shortened: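 Ovine COX-1 (0.1 μg) or human recombinant COX2 (0.2 μg) in 100 mM Tris.HCl pH 8.0 with hematin and epinephrine, preincubated with inhibitor 10 min at 37 °C. Reaction with 5 μM arachidonic acid stopped after 2 min with HCl; PGE2 quantified by LC-MS-MS. IC50 from 12 concentrations in triplicate.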

[1] = 2 minutes, readout pge2/pge2d4 area ratio, average LLE
[2] = 2 minutes, readout pge2/pge2d4 area ratio, read-out: COX2 2 minutes pge2/pge2d4 area ratio Avg. IC50
[3] = 2 minutes, readout pge2 area (counts), average LLE
[4] = 2 minutes, readout pge2 area (counts), read-out: COX2 2 minutes pge2 area (counts) Avg. IC50
[5] = 10 minutes, readout pge2 area (counts), average LLE
[6] = 10 minutes, readout pge2 area (counts), read-out: COX2 10 minutes pge2 area (counts) Avg. IC50
[7] = read-out: COX2 2 minutes pge2/pge2d4 area ratio Avg. IC50 (microM), 2 minutes, readout pge2/pge2d4 area ratio

SMILES	COX2 2 minutes pge2/pge2d4 area ratio Avg. LLE [1]	IC50 [2] [µM]	COX2 2 minutes pge2 area (counts) Avg. LLE [3]	IC50 [4] [µM]	IC50 [6] [µM]	COX2 30 minutes pge2 area (counts) Avg. LLE (30 minutes, readout pge2 area (counts), average LLE)	IC50 (30 minutes, readout pge2 area (counts), read-out: COX2 30 minutes pge2 area (counts) Avg. IC50) [µM]	COX2 10 minutes pge2 area (counts) Avg. LLE [5]	IC50 [7] [µM]
CS(=O)(=O)c1ccc(-c2cc(C(F)(F)F)nc(Oc3ccc(F)cc3)n2)cc1 [Compound 130]	2.661	0.153	2.626	0.21	0.00942	5.42	0.000242	4.116	
CS(=O)(=O)c1ccc(-c2cncc(SCc3cocn3)n2)cc1 [Compound 258]	3.44	4.1	3.462	3.9					
CS(=O)(=O)c1ccc(-c2cccc(NCc3ccon3)n2)cc1 [Compound 150]	5.05	0.276	5.0953	0.249					
CS(=O)(=O)c1ccc(-c2cncc(NCc3ccco3)c2)cc1 [Compound 161]		0.388		0.337					
CS(=O)(=O)c1ccc(-c2cnc(C(F)(F)F)c(NCc3cccs3)n2)cc1 [Compound 144]	3.605	0.234	3.637	0.229					
C[S+]([O-])c1ccc(-c2cccc(OCc3cccs3)n2)cc1 (stereo not drawn) [Compound 157]	3.382	0.35	3.281	0.428					
CS(=O)(=O)c1ccc(-c2cncc(N3CCC4(CCCC4)CC3)n2)cc1 [Compound 319]									5.2
CS(=O)(=O)c1ccc(-n2ccc3ccc(/C(=N/O)c4cccs4)nc32)cc1 [Compound 195]		0.885		0.969					
CS(=O)(=O)c1ccc(-c2cnnc(NCc3cccs3)n2)cc1 [Compound 114]	5.0904	0.104	5.034	0.131					
CS(=O)(=O)c1ccc(-c2cncc(N3Cc4ccccc4C3)n2)cc1 [Compound 313]									5.2
CS(=O)(=O)c1ccc(-c2cnc(N)c(OCc3cccs3)n2)cc1 [Compound 86]	5.134	0.061	5.087	0.0682					
C[C@@H](Oc1cccc(-c2ccc(S(C)(=O)=O)cc2)n1)c1cccs1 (single isomer, unassigned) [Compound 229]	1.429	2.25	1.483	1.99					
CS(=O)(=O)c1ccc(-c2cnnc(OCc3ccco3)c2)cc1 [Compound 255]	3.111	4.01	3.485	1.93					
CS(=O)(=O)c1ccc(-n2ccc3ccc(NCc4ccco4)nc32)cc1 [Compound 125]	3.017	0.141	2.953	0.174					
CS(=O)(=O)c1ccc(-c2cnc3ccn(Cc4nccs4)c3n2)cc1 [Compound 176]	3.19	0.532	3.2105	0.52					
CS(=O)(=O)c1ccc(-c2cncc(N3Cc4cccnc4C3)n2)cc1 [Compound 328]			4.414						5.2
COc1cc(S(C)(=O)=O)ccc1-c1cccc(NCc2ccoc2)n1 [Compound 297]									5.2
CS(=O)(=O)c1ccc(-c2cc3nn(Cc4cccs4)cc3cn2)cc1 [Compound 325]									5.2
CS(=O)(=O)c1ccc(-n2ccc3ccc(Cc4cccs4)nc32)cc1 [Compound 56]		0.0305		0.0329					
CS(=O)(=O)c1ccc(-c2cccc(NCc3ccco3)n2)cn1 [Compound 250]	3.529	3.44	3.534	3.47					
CS(=O)(=O)c1ccc(-c2cncc(N3CCOCC3)n2)cc1 [Compound 286]	5.044				0.974			5.772	5.2
CS(=O)(=O)c1ccc(Oc2cccc(NCc3cccs3)n2)cc1 [Compound 310]									5.2
CS(=O)(=O)c1ccc(-c2ccc3c(n2)N(Cc2cccs2)CC3)cc1 [Compound 121]		0.121		0.124					
CS(=O)(=O)c1ccc(-c2cnc(C#N)c(NCc3cccs3)n2)cc1 [Compound 169]		0.442		0.294	0.0591				
COc1cc(S(C)(=O)=O)ccc1-c1cncc(NCc2ccoc2)n1 [Compound 272]	3.674		3.674						5.2
CC(C)(C)OC(=O)N(c1ccoc1)c1cccc(-c2ccc(S(C)(=O)=O)cc2)n1 [Compound 296]									5.2
CC(=O)c1ncc(-c2ccc(S(C)(=O)=O)cc2)nc1NCc1cccs1 [Compound 207]	3.8683	1.32	3.915	1.06					

More lines, main results first:

COX2 2 minutes pge2/pge2d4 area ratio Avg. LLE [1]	IC50 [2] [µM]	COX2 2 minutes pge2 area (counts) Avg. LLE [3]	IC50 [4] [µM]	IC50 [6] [µM]	COX2 30 minutes pge2 area (counts) Avg. LLE (30 minutes, readout pge2 area (counts), average LLE)	IC50 (30 minutes, readout pge2 area (counts), read-out: COX2 30 minutes pge2 area (counts) Avg. IC50) [µM]	SMILES	COX2 10 minutes pge2 area (counts) Avg. LLE [5]	IC50 [7] [µM]
4.558	0.167	4.582	0.126				COCCOc1ncc(NCc2cccs2)nc1-c1ccc(S(C)(=O)=O)cc1 [Compound 133]		
5.259	0.427	5.249	0.38				COc1ncc(NCc2cccnc2)nc1-c1ccc(S(C)(=O)=O)cc1 [Compound 166]		
5.042	0.559	5.147	0.415				COc1ncc(NCc2ccncc2)nc1-c1ccc(S(C)(=O)=O)cc1 [Compound 182]		
4.364	0.447	4.345	0.452				CS(=O)(=O)c1ccc(-c2nncc(NCc3cccs3)n2)cc1 [Compound 171]		
3.984	0.0454	3.887	0.0623				CC(C)Oc1ncc(NCc2cccs2)nc1-c1ccc(S(C)(=O)=O)cc1 [Compound 75]		
	2.74		3.1				CS(=O)(=O)c1ccc(-c2cc(NCc3ccoc3)ncn2)cc1 [Compound 239]		
5.815	1.05	5.757	1.19				CS(=O)(=O)c1ccc(-c2cncc(NCc3ccno3)n2)cc1 [Compound 202]		
3.99	0.0915	3.918	0.105				CS(=O)(=O)c1ccc(-c2cccc(NCc3nccs3)n2)cc1 [Compound 105]		
5.1378	0.196	5.206	0.161				CS(=O)(=O)c1ccc(-c2cccc(NCc3cnoc3)n2)cc1 [Compound 136]		
2.588	0.887	2.528	1.02				COc1ncc(NCc2cccs2)cc1-c1ccc(S(C)(=O)=O)cc1 [Compound 196]		
4.057	0.272	4.033	0.285				COc1ccc(NCc2ccco2)nc1-c1ccc(S(C)(=O)=O)cc1 [Compound 149]		
4.275	0.652	4.373	0.546				Cn1ccc(CNc2cccc(-c3ccc(S(C)(=O)=O)cc3)n2)n1 [Compound 188]		
3.847	0.0945	3.926	0.0799				Cn1ccc(CNc2cccc(-c3ccc(S(C)(=O)=O)cc3)n2)c1 [Compound 108]		

Source: US20220348590A1, “CYCLOOXYGENASE-2 INHIBITORS AND USES THEREOF” (The Board Institute, Inc., priority 2019, published 2022)
